Results on one substance are retold here after publication PMC9602792, “Preclinical evaluation of the epithelial sodium channel inhibitor AZD5634 and implications on human translation” (American Journal of Physiology - Lung Cellular and …, 2022).

This assay deals with T1, ENaC (Homo sapiens, UniProt P37088+P51168+P51170).
T1 construct: host or cells: primary normal human bronchial epithelial cells, ALI culture
T1 sequence (P37088 1-669): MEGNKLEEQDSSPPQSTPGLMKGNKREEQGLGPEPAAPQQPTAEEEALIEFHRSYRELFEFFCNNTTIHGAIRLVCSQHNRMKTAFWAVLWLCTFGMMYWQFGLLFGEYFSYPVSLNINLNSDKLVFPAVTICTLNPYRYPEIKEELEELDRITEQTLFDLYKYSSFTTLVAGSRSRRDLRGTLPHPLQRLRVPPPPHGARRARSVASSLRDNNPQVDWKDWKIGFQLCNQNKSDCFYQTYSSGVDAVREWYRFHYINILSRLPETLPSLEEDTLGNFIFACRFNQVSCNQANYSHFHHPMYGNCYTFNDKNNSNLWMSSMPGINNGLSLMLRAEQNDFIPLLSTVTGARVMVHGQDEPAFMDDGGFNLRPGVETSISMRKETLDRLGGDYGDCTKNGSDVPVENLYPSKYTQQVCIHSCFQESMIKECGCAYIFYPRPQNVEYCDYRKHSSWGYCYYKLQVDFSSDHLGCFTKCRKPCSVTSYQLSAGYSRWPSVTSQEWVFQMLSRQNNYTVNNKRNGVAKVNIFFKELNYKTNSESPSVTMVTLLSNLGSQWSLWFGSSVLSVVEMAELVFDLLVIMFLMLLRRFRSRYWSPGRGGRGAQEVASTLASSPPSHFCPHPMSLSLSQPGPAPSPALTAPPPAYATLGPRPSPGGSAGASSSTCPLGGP
T1 sequence (P51168 1-640): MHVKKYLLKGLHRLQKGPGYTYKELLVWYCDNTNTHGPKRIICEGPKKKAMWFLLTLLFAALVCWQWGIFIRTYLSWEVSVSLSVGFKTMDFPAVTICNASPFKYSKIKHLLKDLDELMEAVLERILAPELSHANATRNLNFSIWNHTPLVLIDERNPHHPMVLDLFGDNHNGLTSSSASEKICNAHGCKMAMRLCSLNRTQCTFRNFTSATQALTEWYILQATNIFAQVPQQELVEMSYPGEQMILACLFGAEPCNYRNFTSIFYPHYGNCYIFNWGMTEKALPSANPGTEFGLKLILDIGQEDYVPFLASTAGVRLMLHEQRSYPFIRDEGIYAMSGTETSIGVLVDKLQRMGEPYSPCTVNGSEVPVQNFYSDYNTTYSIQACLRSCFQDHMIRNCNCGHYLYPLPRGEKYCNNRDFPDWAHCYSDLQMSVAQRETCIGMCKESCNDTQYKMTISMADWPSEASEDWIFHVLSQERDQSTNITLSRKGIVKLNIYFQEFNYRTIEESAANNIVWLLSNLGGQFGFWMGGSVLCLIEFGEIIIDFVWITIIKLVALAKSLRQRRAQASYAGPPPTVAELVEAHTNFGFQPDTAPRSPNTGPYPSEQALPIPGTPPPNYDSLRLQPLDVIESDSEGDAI
T1 sequence (P51170 1-649): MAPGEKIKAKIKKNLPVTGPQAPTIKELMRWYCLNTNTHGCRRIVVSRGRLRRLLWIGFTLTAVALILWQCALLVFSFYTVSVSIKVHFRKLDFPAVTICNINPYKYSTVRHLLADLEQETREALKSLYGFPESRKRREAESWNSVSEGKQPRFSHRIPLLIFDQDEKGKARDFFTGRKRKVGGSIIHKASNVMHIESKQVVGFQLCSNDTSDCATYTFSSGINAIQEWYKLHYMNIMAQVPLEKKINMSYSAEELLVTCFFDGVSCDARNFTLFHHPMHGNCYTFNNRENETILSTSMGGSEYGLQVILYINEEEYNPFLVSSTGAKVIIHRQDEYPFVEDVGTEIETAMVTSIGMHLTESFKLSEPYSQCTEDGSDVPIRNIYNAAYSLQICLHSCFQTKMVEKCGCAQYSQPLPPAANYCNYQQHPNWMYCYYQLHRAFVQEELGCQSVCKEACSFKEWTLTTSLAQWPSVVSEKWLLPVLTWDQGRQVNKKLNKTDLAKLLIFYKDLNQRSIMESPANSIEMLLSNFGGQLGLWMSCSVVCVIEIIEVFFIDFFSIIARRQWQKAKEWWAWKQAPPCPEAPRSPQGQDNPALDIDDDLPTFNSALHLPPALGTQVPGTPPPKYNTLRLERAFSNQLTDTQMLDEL
The experiment in a line: Ussing chamber Isc in F508del-homozygous CF HBEC cultures. The class given is cell-based. How it is done:
Using previously described techniques ([2], [37]), epithelial cells were harvested from excised lung tissue derived from CF donors homozygous for F508del CFTR, expanded, and grown until confluency was attained. […] To stimulate fresh mucus secretion and formation of an even ASL layer, the cells were washed 48–72 h before experimentation with PneumaCult ALI media (80 µL), added apically, and then aspirated following 30–45 min incubation at 37°C. The washing process was repeated with a 15-min incubation period and the mucus layer was allowed to reestablish, after which the cells were treated with 1 µL of AZD5634 (1 µM, apical), alone and in combination with lumacaftor and ivacaftor (luma/iva; 3 µM/10 µM, basolateral). PBS (1% DMSO, apical) served as a vehicle control. […] Only passage 1 and 2 monolayers were used for these studies.
CFTR-dependent ion transport electrophysiology was measured in HBEC cultures by Isc using modified P2300 Ussing chambers (Physiologic Instruments, San Diego, CA) as previously described ([37], [38]). […] All chambers were maintained at 37°C and agonist stimulation was initiated within 15 min of placement in the chambers.
Descriptive statistics were calculated and means compared using unpaired or paired t tests, or ANOVA, with post hoc analyses conducted for multiple comparisons where appropriate. For analyses of functional anatomy of en bloc trachea, a mixed linear model was used that corrected for within-animal correlation. All tests were two-sided and were computed using GraphPad Prism (GraphPad Software, Inc., La Jolla, CA). P-values <0.05 were considered significant. Statistics are reported as means ± SE, unless indicated otherwise.

pEC50: −log10 of the molar value.

For AZD5634, the pEC50 (F508del-homozygous HBE ALI cultures, read-out: half maximal effective concentration (EC50), cumulative drug effect on Isc) was 7.34. Besides, the “incremental Isc change” value (at 100 nM) is recorded as −6.4 ± 1.6. In addition, the “cumulative ΔIsc” value (at the maximum concentration (10,000 nM)) is reported as −25.3 ± 5.9. The “further reduction in Isc upon acute addition of benzamil” value (benzamil 10 μM after maximal concentration of test drug) is recorded as “no further appreciable reductions in Isc”.
